Experiments:
[1] = system: Hep3B cell; experiment: Determination of Hep3B cell inhibitory activity (Cell Titer-Glo, 72 h); assay type: cell-based; conditions: Hep3B cells, 72 h incubation, Cell Titer-Glo (CTG) method
Excerpt: 2. Determination of Hep3B Cell Inhibitory Activity of Target Compound

[2] = target: T1, FGFR4 (Homo sapiens, UniProt P22455); experiment: Determination of FGFR4 inhibitory activity by fluorescence resonance energy transfer (FRET) method; assay type: biochemical; conditions: FGFR4 from purchased kit, read-out: In vitro FGFR4 kinase inhibitory activity IC50
T1 construct: purchased
Excerpt: 1. Determination of FGFR4 Inhibitory Activity of Target Compound
FGFR4 is obtained by direct purchase of a kit.

T1 sequence (P22455 22-802): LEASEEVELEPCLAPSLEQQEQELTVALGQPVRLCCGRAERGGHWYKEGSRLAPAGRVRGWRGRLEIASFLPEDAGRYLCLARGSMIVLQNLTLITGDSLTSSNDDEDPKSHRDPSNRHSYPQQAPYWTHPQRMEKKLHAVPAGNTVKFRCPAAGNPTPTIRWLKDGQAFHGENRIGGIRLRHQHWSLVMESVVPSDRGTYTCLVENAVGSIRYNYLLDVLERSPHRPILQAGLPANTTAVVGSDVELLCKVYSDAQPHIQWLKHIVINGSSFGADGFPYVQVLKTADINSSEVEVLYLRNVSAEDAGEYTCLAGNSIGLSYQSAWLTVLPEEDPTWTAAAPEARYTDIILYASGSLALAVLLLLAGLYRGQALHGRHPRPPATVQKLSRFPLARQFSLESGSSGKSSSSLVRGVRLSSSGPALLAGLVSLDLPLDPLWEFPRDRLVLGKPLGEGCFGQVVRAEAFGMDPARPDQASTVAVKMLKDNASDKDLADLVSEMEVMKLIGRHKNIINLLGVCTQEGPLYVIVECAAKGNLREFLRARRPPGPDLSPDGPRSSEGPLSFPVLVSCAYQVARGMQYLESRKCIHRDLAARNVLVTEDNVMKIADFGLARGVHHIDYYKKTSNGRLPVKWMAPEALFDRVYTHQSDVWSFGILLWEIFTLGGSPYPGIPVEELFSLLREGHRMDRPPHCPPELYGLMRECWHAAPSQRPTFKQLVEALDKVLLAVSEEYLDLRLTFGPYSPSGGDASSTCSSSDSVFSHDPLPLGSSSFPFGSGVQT

Compound	IC50 [1] [nM]	IC50 [2] [nM]	IC50 ([1]; Homo sapiens) [nM]
4-[2,6-dichloro-4-(cyclopropylaminocarbonyDaminobenzeneamino]-6-[(1-acryloyl-1,2,3,6-tetrahydropyridine)-4-yl]-7-methoxyquinoline [Compound I-27]	< 500	< 5	–
4-[3-chloro-4-(cyclopentylaminocarbonyl)aminophenoxy]-6-[(1-acryloyl-1,2,3,6-tetrahydropyridine)-4-yl]1-7-methoxyquinoline [Compound I-9]	< 100	< 5	–
4-[3-chloro-4-(cyclopropylaminocarbonyl)aminophenoxy]-6-[(1-acryloyl-1,2,3,6-tetrahydropyridine)-4-yl]-7-ethylquinoline [Compound I-13]	< 50	< 2	–
4-[3-chloro-4-(cyclopropylaminocarbonyl)aminophenoxy]-6-[(1-acryloyl-1,2,3,6-tetrahydropyridine)-4-yl]-7-methoxyquinoline [Compound I-1]	< 50	< 2	–
4-[3-chloro-4-(cyclopropylaminocarbonyl)aminophenoxy]-6-[(1-acryloyl-piperidine)-4-yl]-7-methoxyquinoline [Compound I-8]	< 50	< 2	–
4-[3-chloro-4-(cyclopropylaminocarbonyl)aminophenoxy]-6-[(1-chloroyl-1,2,3,6-tetrahydropyridine)-4-yl]-7-methoxyquinoline [Compound I-4]	< 100	< 5	–
4-[3-chloro-4-(cyclopropylaminocarbonyl)aminophenoxy]-6-[(1-diethylphosphorylacetyl-1,2,3,6-tetrahydropyridine)-4-yl]-7-methoxyquinoline [Compound I-2]	< 100	< 5	–
4-[3-chloro-4-cyclohexanecarbonylaminophenoxy]-6-[(1-chloroyl-1,2,3,6-tetrahydropyridine)-4-yl]-7-methoxyquinoline [Compound I-7]	< 50	< 2	–
4-[3-chloro-4-cyclopropanecarboxylaminophenoxy]-6-[(1-chloroyl-1,2,3,6-tetrahydropyridine)-4 -yl]-7-methoxyquinoline [Compound I-5]	< 100	< 5	–
C=CC(=O)Nc1cccc(C)c1Nc1ncc2cc(-c3c(Cl)c(OC)cc(OC)c3Cl)ccc2n1 [Blu9931, reference compound]	–	–	174
C=CS(=O)(=O)N1CC=C(c2cc3c(Oc4ccc(NC(=O)NC5CC5)c(Cl)c4)ccnc3cc2OC)CC1 [Compound I-3, 4-[3-chloro-4-(cyclopropylaminocarbonyl)aminophenoxyl]-6-[(1-ethylenesulfonyl-1,2,3,6-tetrahydropyridine)-4-yl]-7-methoxyquinoline]	–	< 5	< 100
C=CC(=O)N1CC=C(c2cc3c(Oc4ccc(NC(=O)C5CCCC5)c(Cl)c4)ccnc3cc2OC)CC1 [Compound I-6]	–	< 5	< 100
C=CC(=O)N1CC=C(c2cc3c(Oc4ccc(NC(=O)NC5CC5)c(Cl)c4)ccnc3cc2OCc2ccccc2)CC1 [Compound I-10]	–	< 5	< 100
C=CC(=O)N1CC=C(c2cc3c(Oc4ccc(NC(=O)NC5CC5)c(Cl)c4)ccnc3cc2OC(C)C)CC1 [Compound I-11, 4-[3-chloro-4-(cyclopropylaminocarbonyl)aminophenoxy]-6-[(1-acryloyl-1,2,3,6-tetrahydropyridine)-4-yl]-7-isopropylquinoline]	–	< 2	< 50
C=CC(=O)N1CC=C(c2cc3c(Oc4ccc(NC(=O)NC5CC5)c(Cl)c4)ccnc3cc2OC2CCCC2)CC1 [Compound I-12]	–	< 5	< 100
C=CC(=O)N1CC=C(c2cc3c(Oc4ccc(NC(=O)NC5CC5)c(Cl)c4)ccnc3cc2OCCN2CCOCC2)CC1 [Compound I-14]	–	< 5	< 100
C=CC(=O)N1CC=C(c2cc3c(Oc4ccc(NC(=O)NC5CCCCC5)c(Cl)c4)ccnc3cc2OC)CC1 [Compound I-15, 4-[3-chloro-4-(cyclohexylaminocarbonyl)aminophenoxy]-6-[(1-acryloyl-1,2,3,6-tetrahydropyridine)-4-yl]-7-methoxyquinoline]	–	–	< 50
C=CC(=O)N1CC=C(c2cc3c(Oc4ccc(NC(=O)NC(C)(C)C)c(Cl)c4)ccnc3cc2OC)CC1 [Compound I-16, 4-[3-chloro-4-(tert-butylaminocarbonyl)aminophenoxy]-6-[(1-acryloyl-1,2,3,6-tetrahydropyridine)-4-yl]-7-methoxyquinoline]	–	< 5	< 50
C=CC(=O)N1CC=C(c2cc3c(Oc4ccc(NC(=O)Nc5ccccc5)c(Cl)c4)ccnc3cc2OC)CC1 [Compound I-17, 4-[3-chloro-4-(phenylaminocarbonyl)aminophenoxy]-6-[(1-acryloyl-1,2,3,6-tetrahydropyridine)-4-yl]-7-methoxyquinoline]	–	< 2	< 50
C=CC(=O)N1CC=C(c2cc3c(Oc4ccc(NC(=O)NC5CC5)cc4F)ccnc3cc2OC)CC1 [Compound I-18, 4-[2-fluoro-4-(cyclopropylaminocarbonyl)aminophenoxy]-6[(1-acryloyl-1,2,3,6-tetrahydropyridine)-4-yl]-7-methoxyquinoline]	< 50	< 5	–
C=CC(=O)N1CC=C(c2cc3c(Oc4ccc(NC(=O)NC5CC5)c(F)c4)ccnc3cc2OC)CC1 [Compound I-19, 4-[3-fluoro-4-(cyclopropylaminocarbonyl)aminophenoxy]-6-[(1-acryloyl-1,2,3,6-tetrahydropyridine)-4-yl]-7-methoxyquinoline]	–	< 2	< 50
C=CC(=O)N1CC=C(c2cc3c(Oc4ccc(NC(=O)NC5CC5)cc4)ccnc3cc2OC)CC1 [Compound I-20, 4-[4-(cyclopropylaminocarbonyl)aminophenoxy]-6-[(1-acryloyl-1,2,3,6-tetrahydropyridine)-4-yl]-7-methoxyquinoline]	–	< 5	< 500
C=CC(=O)N1CCC=C(c2cc3c(Oc4ccc(NC(=O)NC5CC5)c(Cl)c4)ccnc3cc2OC)C1 [Compound I-21, 4-[3-chloro-4-(cyclopropylaminocarbonyl)aminophenoxy]-6-[(1-acryloyl-1,2,5,6-tetrahydropyridine)-3-yl]-7-methoxyquinoline]	–	< 5	< 500
C=CC(=O)N1CC=C(c2cc3c(Oc4ccc(NC(=O)NC5CC5)c(Cl)c4)ccnc3cc2OC)C1 [Compound I-22, 4-[3-chloro-4-(cyclopropylaminocarbonyl)aminophenoxy]-6-[(1-acryloyl-2,5-dihydropyrrole)-3-yl]-7-methoxyquinoline]	–	< 5	< 100
C=CC(=O)N1CCC(c2cc3c(Oc4ccc(NC(=O)NC5CC5)c(Cl)c4)ccnc3cc2OC)C1 (centres unmarked) [Compound I-23, 4-[3-chloro-4-(cyclopropylaminocarbonyl)aminophenoxy]-6-[(1-acryloyl-tetrahydropyrrole)-3-yl]-7-methoxyquinoline]	–	< 5	< 500
C=CC(=O)N1CC=C(c2cc3c(Oc4ccc(C(=O)NC5CC5)c(Cl)c4)ccnc3cc2OC)CC1 [Compound I-24, 4-[3-chloro-4-(cyclopropylamino)carbonylphenoxy]-6-[(1-acryloyl-1,2,3,6-tetrahydropyridine)-4-yl]-7-methoxyquinoline]	–	< 2	< 50
C=CC(=O)N1CC=C(c2cc3c(Sc4ccc(NC(=O)NC5CC5)c(Cl)c4)ccnc3cc2OC)CC1 [Compound I-25, 4-[3-chloro-4-(cyclopropylaminocarbonyl)aminophenylmercapto]-6-[(1-acryloyl-1,2,3,6-tetrahydropyridine)-4-yl]-7-methoxyquinoline]	–	< 5	< 100
C=CC(=O)N1CC=C(c2cc3c(Nc4ccc(NC(=O)NC5CC5)c(Cl)c4)ccnc3cc2OC)CC1 [Compound I-26, 4-[3-chloro-4-(cyclopropylaminocarbonyl)aminophenylamino]-6-[(1-acryloyl-1,2,3,6-tetrahydropyridine)-4-yl]-7-methoxyquinoline]	–	< 5	< 500
COc1cc2nccc(Oc3ccc(NC(=O)NC4CC4)c(Cl)c3)c2cc1C(N)=O [Lenvatinib, reference compound]	–	43	< 500

Source: US20230014962A1, “Quinoline compound and use thereof” (SKYRUN PHARMA CO., LTD., priority 2019, published 2023)
